In patent publication EP1285920A1, “C10 Ester sustituted taxanes as antitumor agents” (Florida State University Research Foundation, Inc., priority 2001, dated 2003):
Read-outs that look alike come from different tables or passages of the source.

Columns and labels:
[1] = system: NCI-H1299 (H1299) carcinoma; test: In vivo evaluation against NCI-H1299 human lung carcinoma xenograft (i.v., Example 11)
Method: Antitumor compounds were formulated for an i.v. dosing regime prepared in the following vehicle: 10% ethanol, 10% Cremophor and 80% isotonic saline.
Vehicle control animals were dosed twice intravenously with half the total volume being given separated by one hour. The study was terminated on Day 60.
(§1) A complete response is obtained if the tumor is not palpable at the end of the study.
A tumor scoring system was designed to provide a more quantitative ranking of efficacy (therapeutic potential) among the antitumor agents evaluated against the different human solid tumor xenografts. Each mouse in a study was given a score of from 1 to 10 at the end of the study. The scores can be summarized as follows:
The individual score for each mouse was averaged into a mean score for each treatment group. […]
The treatment protocol for the H1299 test was identical to the SK-MES test protocol. […]

A2780 ovarian carcinoma = settings: for Mean Score: tumor scoring system
Method: Dosing was initiated on Day 1. […] Taxotere was given i.v. on a qd x 1 schedule at a dose of 70 mg/kg. […] The study was terminated on Day 60. Treatment groups are detailed in Table 7.

A375 melanoma = settings: for Complete Response / Partial Response / Stable Disease / Survivors / Toxic Deaths: number of mice; for Mean Score: tumor scoring system
Method: Dosing was initiated on Day 1. […] Taxotere was given i.v. on a qd x 1 schedule at a dose of 70 mg/kg. […] The study was terminated on Day 60. Treatment groups are detailed in Table 9.

SKMES lung carcinoma = test: In vivo evaluation of oral administration against SKMES human lung carcinoma xenograft (Example 21); settings: single oral bolus Day 1
Method: Female Nu/Nu mice (6-8 weeks of age; implanted with 1 mm^3 SKMES lung carcinoma fragments in the flank) were sorted into treatment groups of six mice each. […] Treatments were administered as a single oral bolus on Day 1, and the study was terminated on Day 60.
as §1
The total response rate is defined as the percentage of evaluable animals (excluding deaths due to procedure or toxicity) in a group that experience complete or partial responses at the termination of the study.

[2] = i.v. split dose qd x 1, six mice per group
[3] = number of mice, Taxol i.p. qd x 5, 15 mg/kg daily, 5 mice
[4] = number of mice, i.v. qd x 1 at estimated MTD (Taxol 24 mg/kg, Taxotere 70 mg/kg, 0983 72.6 mg/kg), 5 mice/group (Taxotere 6), Day 60
[5] = Taxol i.p. qd x 5, 18 mg/kg daily, 6 mice
[6] = i.v. qd x 1 at estimated MTD (Taxol 24 mg/kg, Taxotere 70 mg/kg), 6 mice/group (Taxotere 7)
[7] = i.v. qd x 1 at estimated MTD (Taxol 24 mg/kg, Taxotere 70 mg/kg), 6 mice/group (Taxotere 7), Day 60
[8] = number of mice, mg/kg: Taxol 40, 0687 228, 0503 73, 6 mice/group, Day 60

## CC(=O)O[C@H]1C(=O)[C@@]2(C)[C@H]([C@H](OC(=O)c3ccccc3)[C@]3(O)C[C@H](OC(=O)[C@H](O)[C@@H](NC(=O)c4ccccc4)c4ccccc4)C(C)=C1C3(C)C)[C@]1(OC(C)=O)CO[C@@H]1C[C@@H]2O [Taxol, paclitaxel, reference compound]
[1]; i.v. split dose qd x 1
  antitumor activity: not active
[1]; [2]
  Survivors: 1
  Toxic Deaths: 0
[1]; tumor score 1 to 10 per mouse, group mean
  Mean Score: 2.7 ± 1.3
A2780 ovarian carcinoma; A2780, Taxol i.p. 15 mg/kg qd x 5 (Group 3)
  toxicity: highly toxic
A2780 ovarian carcinoma; A2780, Taxol i.p. 15 mg/kg qd x 5 (Group 3), five mice
  mice succumbed to drug-related side effects: four
A2780 ovarian carcinoma; A2780, i.v. qd x 1
  antitumor activity: moderately efficacious
  survival extension compared to Group 1 controls: 87%
A2780 ovarian carcinoma; A2780, i.v. qd x 1 (compounds estimated MTD; Taxol 24 mg/kg split; Taxotere 70 mg/kg), days until tumor 2.0 g, ended Day 60
  MDS: 21.9 days
A2780 ovarian carcinoma; A2780, i.v. qd x 1, five mice per group
  Stable Disease: One
A2780 ovarian carcinoma; mean days of survival until neoplasm reached 2.0 g, i.v. qd x 1 at estimated MTD (Taxol 24 mg/kg, Taxotere 70 mg/kg, 0983 72.6 mg/kg), 5 mice/group (Taxotere 6), terminated Day 60
  MDS (n): 21.9 ± 5.5 (5) days
A2780 ovarian carcinoma; [3]
  Complete Response: 0
  Partial Respons: 0
  Stable Disease: 0
  Survivors: 0
  Toxic Deaths: 4
A2780 ovarian carcinoma; number of mice, i.v. qd x 1 at estimated MTD (Taxol 24 mg/kg, Taxotere 70 mg/kg, 0983 72.6 mg/kg), 5 mice/group (Taxotere 6)
  Toxic Deaths: 0
A2780 ovarian carcinoma; [4]
  Complete Response: 0
  Partial Respons: 0
  Stable Disease: 0
  Survivors: 1
A2780 ovarian carcinoma; Taxol i.p. qd x 5, 15 mg/kg daily, 5 mice
  Mean Score: 0.6 ± 0.6
A2780 ovarian carcinoma; i.v. qd x 1 at estimated MTD (Taxol 24 mg/kg, Taxotere 70 mg/kg, 0983 72.6 mg/kg), 5 mice/group (Taxotere 6)
  Mean Score: 1.8 ± 0.4
A375 melanoma; A375, Taxol i.p. 18 mg/kg qd x 5
  toxicity: highly toxic
A375 melanoma; A375, Taxol i.p. 18 mg/kg qd x 5, six animals
  animals died of toxicity: six
A375 melanoma; A375, i.v. qd x 1
  survival extension compared to Group 1 controls: 26%
A375 melanoma; A375, i.v. qd x 1 (Taxol 24 mg/kg split; Taxotere 70 mg/kg), days until tumor 2.0 g, ended Day 60
  MDS: 18.1 days
A375 melanoma; mean days of survival until neoplasm reached 2.0 g, i.v. qd x 1 at estimated MTD (Taxol 24 mg/kg, Taxotere 70 mg/kg), 6 mice/group (Taxotere 7), terminated Day 60
  MDS (n): 18.1 ± 0.6 (4) days
A375 melanoma; [5]
  Complete Response: 0
  Partial Response: 0
  Stable Disease: 0
  Survivors: 0
  Toxic Deaths: 6
  Mean Score: 0 ± 0
A375 melanoma; [6]
  Toxic Deaths: 2
  Mean Score: 0.8 ± 0.3
A375 melanoma; [7]
  Complete Response: 0
  Partial Response: 0
  Stable Disease: 0
  Survivors: 0
SKMES lung carcinoma; SKMES, 0687 228 mg/kg, 0503 73 mg/kg, Taxol 40 mg/kg
  antitumor activity: no statistically significant response
SKMES lung carcinoma; complete or partial responses among evaluable animals, mg/kg: Taxol 40, 0687 228, 0503 73
  % Total Response: 0%
SKMES lung carcinoma; mean days of survival until neoplasm reached 2.0 g, mg/kg: Taxol 40, 0687 228, 0503 73, 6 mice/group, terminated Day 60
  MDS (n): 13.2 ± 1.4 (6) days
SKMES lung carcinoma; number of mice, mg/kg: Taxol 40, 0687 228, 0503 73, 6 mice/group
  Toxic Deaths: 0
SKMES lung carcinoma; [8]
  Complete Response: 0
  Partial Response: 0
  Stable Disease: 0
  Survivors: 0
